{
  "source": "patent US20160082159A1",
  "about": "“BALLOON SURFACE COATING” (priority 2013, published 2016)",
  "origin": "cited, not measured here",
  "settings": "in humans",
  "data": [
    {"smiles": "CC(=O)O[C@H]1C(=O)[C@@]2(C)[C@H]([C@H](OC(=O)c3ccccc3)[C@]3(O)C[C@H](OC(=O)[C@H](O)[C@@H](NC(=O)c4ccccc4)c4ccccc4)C(C)=C1C3(C)C)[C@]1(OC(C)=O)CO[C@@H]1C[C@@H]2O", "note": "[paclitaxel]", "values": [
      {"measurement": "normal plasma half-life of paclitaxel", "result": "approximately 60 min"}
    ]}
  ]
}
